{
  "source": "patent US11696903B2",
  "about": "“Compounds and methods for scavenging dicarbonyl electrophiles” (VANDERBILT UNIVERSITY, priority 2019, dated 2023)",
  "key": {"[1]": {"experiment": "EtHOBA concentration in the colon by LC/ESI/MS/MS", "format": "in vivo", "settings": "1.5 and 3.7 mg/ml, after 6 days of treatment", "method": "FIGS. 3A and 3B show data from C57BL/6 mice were treated or not with various concentrations of EtHOBA. (A) Body weight was assessed every day. (B) After 6 days, mice were euthanized and EtHOBA was measured in the colon. n=5 mice/group.\nThe present inventors analyzed the effect of various concentrations of EtHOBA and its bioavailability in control mice. […] After 6 days of treatment, EtHOBA concentrations in the colon were analyzed using liquid chromatography electrospray ionization tandem mass spectrometry (LC/EST/MS/MS)."}, "DNA damage (pH2AX)": {"system": "DNA damage (pH2AX)", "experiment": "DNA damage by pH2AX staining in infected mice", "format": "in vivo", "settings": "infected mice with EtSA treatment; p<0.05", "method": "(§1) As discussed further in the Examples, the human gastric epithelial cell line AGS was infected with Hp PMSS1±10 mM EtSA. FVB/N insulin-gastrin (INS-GAS) mice and Mongolian gerbils were infected for 8 wk with Hp PMSS1 and 7.13, respectively; EtSA (0.75% in water) was given to animals beginning one wk post-infection. Lys-LG adducts, a marker of electrophile reactions, and EtSA were quantified by LC/EST/MS/MS. Histology was analyzed on H&E staining. DNA damage was evaluated by pH2AX staining. Hp colonization was quantified by culture. Mucosal immune responses were determined by RNA profiling and by Luminex assay. Mice were imaged using PET/CT with ^18F-FDG (inflammation marker) and ^18F—NaF (tumor marker)."}, "[2]": {"system": "Lysyl-LG adducts in AGS cells", "experiment": "Lysyl-LG adducts in AGS cells infected with H. pylori PMSS1", "format": "cell-based, human", "method": "FIGS. 15A, 15B, and 15C are graphs showing C57BL/6 (A) or INS-GAS mice (B) were infected for 8 weeks with H. pylori PMSS1. Lysyl-LG adducts were measured in the gastric tissues by LC/ESI/MS/MS. *P<0.05. (C) Lysyl-LG adducts concentration was determined in AGS cells infected (plain bars) or not (open bars) with H. pylori PMSS1 for 24 h, in the presence or absence of EtSA. *P<0.05 vs. uninfected cells. § P<0.05 vs. infected cells without EtSA.\nas §1, with “As discussed further in the Examples, the human gastric epithelial cell line AGS was infected with Hp PMSS1±10 mM EtSA.” left out\nTo further determine whether ethylsalicylamine (EtSA) prevents the formation of bifunctional electrophiles during H. pylori infection, the […] were treated or not with EtSA 30 min prior to the infection."}, "[3]": {"experiment": "Reaction rate of scavengers with dicarbonyl electrophiles / LG relative to lysine", "settings": "faster than lysine", "text": "Under conditions such as inflammation and/or accumulated mutations, epithelial cells and adjacent immune cells express genes encoding enzymes involved in carcinogenesis, such as prostaglandin-endoperoxide synthase (PGHS2; COX2), NADPH oxidases, and spermine oxidase. The products of these enzymes (prostaglandins, O2D, and H2O2 plus 3-aminopropanal) lead to formation of dicarbonyl electrophiles: levuglandins (LGs), malondialdehyde (MDA), 4-oxo-nonenal (4-O NE), and acrolein. Electrophiles may lead to immune dysfunction and neoplastic risk by forming adducts with proteins and DNA11-15. However, the role of these reactive aldehydes in colon carcinogenesis is previously unknown. The present inventors have discovered that the level of LG-protein adducts is increased in the colon tissues of i) human ulcerative colitis (UC), colitis-associated carcinogenesis (CAC), and CRC; ii) mice treated with azoxymethane-dextran sulfate sodium (AOM-DSS), a model of CAC; and iii) transgenic mice with a tamoxifen-inducible disruption of Apc using the colon-specific, caudal type homeobox 2 (CDX2) Cre (CDX2P-CreERT2;Apcff), which recapitulates sporadic/genetically-driven CRC. […]"}, "colonic immune response": {"system": "colonic immune response", "experiment": "Colonic immune response in AOM-DSS mice (infiltration score, gene expression, IF)", "format": "in vivo, C57BL/6 mice", "text": "The present inventors used the tissues generated for FIG. 5 to study immune cell responses in AOM-DSS-treated mice±EtHOBA.\nUsing the tissues from the same mice as in FIG. 5, the present inventors analyzed the expression of key genes encoding mediators of the innate and adaptive immune response. […] Importantly, the overall pattern was that the genes encoding antitumoral effectors were expressed at a higher level in mice that were given compounds of the present invention. […] In contrast, the gene encoding the immunosuppressive myeloid mediator AR G1 was not affected by EtHOBA (FIG. 9). Using IF, we confirmed that mice treated with AOM-DSS mice that were given EtHOBA had increased CD68^+NOS2^+ (M1 macrophages) in colon tumors (FIG. 10)."}},
  "data": [
    {"smiles": "CCc1ccc(O)c(CN)c1", "note": "[EtHOBA, 5-ethyl-2-hydroxybenzylamine]", "values": [
      {"measurement": "EtHOBA concentrations in the colon", "setting": "[1]", "result": "readily detected"},
      {"measurement": "decrease of DNA damage", "setting": "DNA damage (pH2AX)", "result": 71, "unit": "%"},
      {"measurement": "Lys-LG adduct levels", "setting": "[2]; AGS cells infected with Hp PMSS1 ± 10 mM EtSA", "result": "inhibited"},
      {"measurement": "lysyl-LG adduct concentration", "setting": "[2]; H. pylori-infected AGS cells, 24 h, 10 μM EtSA", "result": "completely attenuated"},
      {"measurement": "rate of reaction with dicarbonyl electrophiles", "setting": "[3]", "result": "3 orders of magnitude"},
      {"measurement": "immune cell infiltration", "setting": "colonic immune response; AOM-DSS mice, EtHOBA vs untreated", "result": "more influx of immune cells"},
      {"measurement": "Arg1 (ARG1) expression", "setting": "colonic immune response; AOM-DSS ± EtHOBA", "result": "not affected"},
      {"measurement": "CD68+NOS2+ (M1 macrophages) in colon tumors", "setting": "colonic immune response; IF, AOM-DSS mice", "result": "increased"},
      {"measurement": "histology in control mice", "setting": "colonic immune response; control mice given EtHOBA", "result": "no effect on histology"},
      {"measurement": "Il12a expression", "setting": "colonic immune response; non-tumor and tumor tissue, AOM-DSS ± EtHOBA", "result": "reached statistical significance for an increase"},
      {"measurement": "Il17 expression", "setting": "colonic immune response; non-tumor tissue, AOM-DSS ± EtHOBA", "result": "reached statistical significance for an increase"},
      {"measurement": "Il12b expression", "setting": "colonic immune response; tumor tissue, AOM-DSS ± EtHOBA", "result": "reached statistical significance for an increase"},
      {"measurement": "Nos2 expression", "setting": "colonic immune response; tumor tissue, AOM-DSS ± EtHOBA", "result": "reached statistical significance for an increase"},
      {"measurement": "Tnfa expression", "setting": "colonic immune response; tumor tissue, AOM-DSS ± EtHOBA", "result": "reached statistical significance for an increase"}
    ]}
  ]
}
